Read-outs that look alike come from different tables or passages of the source.
Test: Chemical stability in butyl benzoate
Assay type: physicochemical

Structure (SMILES) | chemical stability in the butyl benzoate (room temperature or accelerated temperature) | chemical stability in the butyl benzoate
CC(Oc1ccc(Oc2nc3ccc(Cl)cc3o2)cc1)C(=O)O (centres unmarked) [fenoxaprop] | chemically stable | 
COc1nn(C(=O)[N-]S(=O)(=O)c2ccccc2OC(F)(F)F)c(=O)n1C.[Na+] [Flucarbazone sodium] |  | chemically stable
